The record followed here is patent EP1034273B1, “HISTAMINE AND SEROTONIN BINDING MOLECULES” (Evolutec Limited, priority 1997, dated 1999).

The Kd is the concentration at which binding is half-saturated. One may read the IC50 as the point on the concentration scale where inhibition reaches its midpoint.

Read-outs that look alike come from different tables or passages of the source.

Assay [1] has as its target recombinant D.RET6 (SEQ ID 4), Dermacentor reticulatus histamine-binding protein (Dermacentor reticulatus, UniProt Q8WSK7). Nature of the assay: biochemical. The procedure: (§1) The recombinant D.RET6 was diluted with 1.5% γ-globulin (Sigma) and used in one set of experiments. Fifty microlitres of the protein solution were incubated with 50 µl of 1:2500 dilution of [2,5-^3H] histamine diHCl (1µCi/µl) solution (Amersham) at room temperature for at least 3 hours with or without increasing concentrations of unlabelled histamine. All the assays were carried out in a total volume of 200 µl. The incubations were terminated by adding 125 µl of PEG 8000 (36% w/v in PBS) and centrifuged in a microfuge at maximum speed for 12 minutes to collect the bound protein. The tubes were spun once more to remove all supernatant without disturbing the pellets. Subsequently, pellets were redissolved in PBS. Three millilitres of liquid scintillation cocktail (Beckman) were added and the radioactivity measured using a liquid scintillation counter (Wallac, 1217 Rackbeta).
To study the effect of serotonin on histamine binding activity, 10 µl of PBS (as a control experiment) or 10 µl serotonin (50 µM or 500 µM) were added to each 200 µl binding assay.
For data analysis, the ligand affinity constant was estimated from Scatchard plots as previously described by Hulme, 1992, Receptor-Ligand Interactions, IRL Press, Oxford). The nonlinear regression was used to fit the data (Motulsky, 1987, FASEB J, 1: 365-374) and two asymtotic straight lines were made as described elsewhere (Feldman, 1972, Analytical Biochem 48: 317).

The target of the next assay is T1, recombinant D.RET6 (Dermacentor reticulatus, UniProt Q8WSK7).
T1 sequence (Q8WSK7 18-209): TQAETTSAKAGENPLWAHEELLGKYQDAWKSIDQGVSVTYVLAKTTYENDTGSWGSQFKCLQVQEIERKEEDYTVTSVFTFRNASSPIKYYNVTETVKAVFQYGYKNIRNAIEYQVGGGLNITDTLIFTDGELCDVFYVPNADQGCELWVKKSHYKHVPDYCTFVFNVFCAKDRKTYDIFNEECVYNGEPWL
As to the kind of experiment: Competitive binding assay: unlabelled ligands displacing radioactive histamine from recombinant D.RET6. The note with it: graphically derived from competitive binding curve (Figure 15), read-out: IC50 of the unlabelled ligands in displacing the radioactive histamine from the binding site by 50%. The procedure:
as §1
In a second set of experiments, a competitive binding assay was used to compare three unlabelled competitor ligands (histamine, 1-methylhistamine and 3-methylhistamine).

Assay [2] concerns the target Av-HBP (SEQ. ID. 6), semi-purified recombinant protein, Amblyomma variegatum. The note with it: read-out: equilibrium dissociation constant (Kd) for histamine; results not shown.

With `NCCc1c[nH]cn1` [histamine], the Kd in assay [1] (Kd, first (higher affinity) histamine binding site, final concentration of 2.38µM serotonin) is 1.1 nM; in assay [1] (Kd, first (higher affinity) histamine binding site, no serotonin, approximate, from asymptotic lines of Scatchard plot), about 60 nM; in assay [1] (Kd, first (higher affinity) histamine binding site, with 23.8µM serotonin), 1.3 nM; in assay [1] (read-out: Kd, second (lower affinity) histamine binding site, final concentration of 2.38µM serotonin), 1000 nM; in assay [1] (read-out: Kd, second (lower affinity) histamine binding site, no serotonin, approximate, from asymptotic lines of Scatchard plot), about 2000 nM; in assay [1] (read-out: Kd, second (lower affinity) histamine binding site, with 23.8µM serotonin), 1000 nM. In assay [2], the Kd was about 7.3 nM. For the same molecule, the “increase of binding affinity of D.RET6 for histamine” value in assay [1] (in the presence of serotonin versus no serotonin) is listed as “sixty-fold”. The IC50 on recombinant D.RET6 was found to be 133 nM.
